Measurements published in patent publication US20250302904A1, “EXTRACTS IN EUTECTIC SOLVENT OF OLIVE OIL POLYPHENOLS, COMPOSITIONS, USES AND METHODS OF PREPARATION THEREOF” (ACTIVE-ITALIA S.R.L., priority 2022, published 2025).

Experiments:
[1] = Additional stability tests of oleocanthal and oleacein in water or formulated product (NaDES), 6 months; type: physicochemical; details: for degradation with respect to control at time zero: formulated product (NaDES betaine/propylene glycol 1:3.3); for degradation: in water
Protocol: FIG. 4. Stability over time (6 months) of oleacein and oleocanthal at 25° C. and 40° C. in water and in the formulated product (serum NaDES diluted in almond oil). The values represent standard averages and deviations (N=3). The significance tests were performed with one-way ANOVA (p<=0.05).
Additional stability tests of oleocanthal and oleacein in water or in NaDES (that is in NaDES mixture comprising betaine/propylene glycol 1:3.3) were performed for 6 months, at different temperatures. The results obtained from the stability tests over time (6 months) of oleacein and oleocanthal, at two different temperatures (25° C. and 40° C. (accelerated stability)), in water and in the formulated product, are shown in FIG. 4. […] In particular, in water, after six months at 25° C., there is a degradation of oleacein and oleocanthal by about 70% and l′80%, respectively. At 40° C. the degradation results to be still more evident: about 90% for oleacein and 80% for oleocanthal. On the contrary, in the product formulated according to the present invention (NaDES betaine/propylene glycol 1:3.3), the degradation of the active principles, with respect to control at time zero, results to be modest at 25° C. and by about 50% and 30% for oleacein and oleocanthal respectively at 40° C.

[2] = Stability test of oleocanthal and oleacein in NaDES or water, 30 days; type: physicochemical; details: after 30 days, 10 mM
Protocol: Oleocanthal and oleacein were dissolved at a final concentration equal to 10 mM in water or in NaDES (Betaine/Propylene glycol, Bet/Prop) and subjected to stability test.

[3] = NaDES betaine/propylene glycol (1:3.3), 25° C.
[4] = NaDES betaine/propylene glycol (1:3.3), 40° C.

Row | degradation with respect to control at time zero ([1]; six months at 25° C.) | degradation with respect to control at time zero ([1]; six months at 40° C.) | degradation ([1]; after six months at 25° C.) | degradation ([1]; six months at 40° C.) | % loss ([2]; H2O, 25° C.) [%] | % loss ([2]; H2O, 40° C.) [%] | % loss [2, 3] [%] | % loss [2, 4] [%] | SMILES
1 | modest | ~30% | ~80% | ~80% | 7.5 | 32.6 | ~0 | 1.4 | C/C=C(/C=O)[C@@H](CC=O)CC(=O)OCCc1ccc(O)cc1 [Oleocanthal]
2 | modest | about 50% | about 70% | about 90% | 8.1 | 38.1 | ~0 | 4.5 | CC=C(C=O)C(CC=O)CC(=O)OCCc1ccc(O)c(O)c1 (stereo in doubt) [Oleacein]
